Legend:
SIK2 = molecular target: T1, SIK2 (Homo sapiens, UniProt Q9H0K1); assay: ADP-Glo kinase assay, SIK2; assay type: biochemical
T1 construct: purchased ThermoFisher Scientific PV4792
In short: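 Steps: add enzyme–substrate mixture; start with diluted ATP; incubate RT 120 min; add ADP-Glo Reagent to terminate and remove unconsumed ATP, 40 min; add detection reagent, 30 min; read luminescence. DMSO at 1% and staurosporine at 10 μM (final) define assay windows.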

[1] = test system: LPS-induced TNFα in monocytes; assay: Monocytes assay: LPS-triggered TNFα (ELISA); assay type: cell-based, human; conditions: Homo sapiens, Monocyte, LPS-triggered TNFα inhibition
In short: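 TNFα secretion was triggered with 200 ng/mL LPS for 4 h in human blood CD14+ monocytes after 1 h compound pretreatment at 37 °C, with 0.2% final DMSO. Supernatants were analysed by streptavidin-HRP/luminol ELISA, and percentage inhibition at each concentration was derived relative to control wells.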

T1 sequence (Q9H0K1 whole entry): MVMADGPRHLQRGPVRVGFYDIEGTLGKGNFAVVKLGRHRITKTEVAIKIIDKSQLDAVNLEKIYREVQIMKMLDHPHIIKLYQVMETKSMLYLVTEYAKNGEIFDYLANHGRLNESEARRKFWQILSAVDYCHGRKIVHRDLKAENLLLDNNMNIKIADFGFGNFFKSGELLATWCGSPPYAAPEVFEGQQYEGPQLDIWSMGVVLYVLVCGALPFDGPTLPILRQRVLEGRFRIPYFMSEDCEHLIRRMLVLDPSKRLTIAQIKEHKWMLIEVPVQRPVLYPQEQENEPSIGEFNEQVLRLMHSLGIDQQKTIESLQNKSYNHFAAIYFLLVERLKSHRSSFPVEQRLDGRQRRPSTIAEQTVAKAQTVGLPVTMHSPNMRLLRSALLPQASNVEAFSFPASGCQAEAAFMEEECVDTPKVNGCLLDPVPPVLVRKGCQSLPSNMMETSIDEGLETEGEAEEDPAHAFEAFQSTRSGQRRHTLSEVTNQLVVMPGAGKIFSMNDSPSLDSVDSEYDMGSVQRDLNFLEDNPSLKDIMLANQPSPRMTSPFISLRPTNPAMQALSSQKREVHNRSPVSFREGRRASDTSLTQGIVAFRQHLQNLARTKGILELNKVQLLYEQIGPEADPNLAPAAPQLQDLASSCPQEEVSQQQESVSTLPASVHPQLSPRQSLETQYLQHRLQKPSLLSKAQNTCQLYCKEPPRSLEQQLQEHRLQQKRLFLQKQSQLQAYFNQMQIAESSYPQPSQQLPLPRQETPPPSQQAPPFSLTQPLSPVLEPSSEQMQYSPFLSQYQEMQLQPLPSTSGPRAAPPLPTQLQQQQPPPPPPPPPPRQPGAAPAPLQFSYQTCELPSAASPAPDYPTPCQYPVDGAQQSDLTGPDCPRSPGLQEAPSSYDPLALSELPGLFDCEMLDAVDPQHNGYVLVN

| SMILES | IC50 (SIK2) | EC50 [1] |
| --- | --- | --- |
| COc1cc(-c2cnc3cc(C4COCCN4C)ccn23)cc(OC(F)F)c1C(=O)NC1CC1 (stereo not drawn) [Cpd 193, N-cyclopropyl-2-(difluoromethoxy)-6-methoxy-4-[7-(4-methylmorpholin-3-yl)imidazo[1,2-a]pyridin-3-yl]benzamide] | > 500 nM | 100 to 1000 nM |
| COc1cc(-c2cnn3cc(C4(O)CCC4)ccc23)cc(OC(F)F)c1C(=O)N[C@@H]1C[C@@H]1F [Cpd 266, 2-(difluoromethoxy)-N-[(1R,2S)-2-fluorocyclopropyl]-4-[6-(1-hydroxycyclobutyl)pyrazolo[1,5-a]pyridin-3-yl]-6-methoxy-benzamide] | 100 to 500 nM | 100 to 1000 nM |
| COc1cc(-c2cnn3cc(C4COC4)ccc23)cc(OC(F)F)c1C(=O)NC1CC1 [Cpd 216, N-cyclopropyl-2-(difluoromethoxy)-6-methoxy-4-[6-(oxetan-3-yl)pyrazolo[1,5-a]pyridin-3-yl]benzamide] | 100 to 500 nM | 100 to 1000 nM |
| COc1cc(-c2cnn3cc(C(C)(C)C#N)cnc23)cc(OC(F)F)c1C(=O)N[C@@H]1C[C@@H]1F [Cpd 231, 4-[6-(1-cyano-1-methyl-ethyl)pyrazolo[1,5-a]pyrimidin-3-yl]-2-(difluoromethoxy)-N-[(1R,2S)-2-fluorocyclopropyl]-6-methoxy-benzamide] | > 500 nM | 100 to 1000 nM |
| COc1cc(-c2cnn3cc(C4CCOCC4)cnc23)cc(OC(F)F)c1C(=O)NC1CC1 [Cpd 95, N-cyclopropyl-2-(difluoromethoxy)-6-methoxy-4-(6-tetrahydropyran-4-ylpyrazolo[1,5-a]pyrimidin-3-yl)benzamide] | 100 to 500 nM | 100 to 1000 nM |
| COc1cc(-c2cnc3cc(C(C)N4CCCCC4)ccn23)cc(OC(F)F)c1C(=O)NC1CC1 (stereo not drawn) [Cpd 146, N-cyclopropyl-2-(difluoromethoxy)-6-methoxy-4-[7-[1-(1-piperidyl)ethyl]imidazo[1,2-a]pyridin-3-yl]benzamide] | > 500 nM | 1000 to 5000 nM |
| COc1cc(-c2cnn3cc(C(C)(C)C#N)ccc23)cc(OC(F)F)c1C(=O)NC1CC1 [Cpd 208, 4-[6-(1-cyano-1-methyl-ethyl)pyrazolo[1,5-a]pyridin-3-yl]-N-cyclopropyl-2-(difluoromethoxy)-6-methoxy-benzamide] | > 500 nM | 0.1 to 100 nM |
| COc1cc(-c2cnc3cc(C(C)(C#N)CO)ccn23)cc(OC(F)F)c1C(=O)NC1CC1 (stereo not drawn) [Cpd 176, 4-[7-(1-cyano-2-hydroxy-1-methyl-ethyl)imidazo[1,2-a]pyridin-3-yl]-N-cyclopropyl-2-(difluoromethoxy)-6-methoxy-benzamide] | > 500 nM | 100 to 1000 nM |
| COc1cc(-c2cnn3cc(C(C)(C)CO)ccc23)cc(OC(F)F)c1C(=O)NC1CC1 [Cpd 236, N-cyclopropyl-2-(difluoromethoxy)-4-[6-(2-hydroxy-1,1-dimethyl-ethyl)pyrazolo[1,5-a]pyridin-3-yl]-6-methoxy-benzamide] | > 500 nM | 100 to 1000 nM |
| COc1cc(-c2cnc3cc(C4(C#N)COC4)ccn23)cc(OC(F)F)c1C(=O)NC1CC1 [Cpd 117, 4-[7-(3-cyanooxetan-3-yl)imidazo[1,2-a]pyridin-3-yl]-N-cyclopropyl-2-(difluoromethoxy)-6-methoxy-benzamide] | > 500 nM | 100 to 1000 nM |
| COc1cc(-c2cnc3cc(C(O)CC#N)ccn23)cc(OC(F)F)c1C(=O)NC1CC1 (stereo not drawn) [Cpd 175, 4-[7-(2-cyano-1-hydroxy-ethyl)imidazo[1,2-a]pyridin-3-yl]-N-cyclopropyl-2-(difluoromethoxy)-6-methoxy-benzamide] | 100 to 500 nM | 1000 to 5000 nM |
| COc1cc(-c2cnn3cc(C4(C#N)CC4)ccc23)cc(OC(F)F)c1C(=O)N[C@@H]1C[C@@H]1F [Cpd 235, 4-[6-(1-cyanocyclopropyl)pyrazolo[1,5-a]pyridin-3-yl]-2-(difluoromethoxy)-N-[(1R,2S)-2-fluorocyclopropyl]-6-methoxy-benzamide] | 10 to 100 nM | 0.1 to 100 nM |
